The results in this text go back to US20240360075A1, “N-SUBSTITUTED C6 CYCLYL CARBOXAMIDE COMPOUNDS AND USES THEREOF” (ALCON INC., priority 2023, published 2024).

Bounds are passed on as bounds.

The test addresses T1, TRPM8 (Homo sapiens, UniProt Q7Z2W7).
T1 construct: purchased Eurofins (Cerep) item #3316
Put plainly: TRPM8 Human Transient Potential Ion Channel Cell Based Agonist Calcium Flux Assay (Eurofins Cerep item #3316). Conditions: for Emax: read-out: Percent Agonist; for EC50: room temperature. From the text: Compounds can be tested using the commercially available kit from Eurofins “TRPM8 Human Transient Potential Ion Channel Cell Based Agonist Calcium Flux Assay, Cerep” item #3316, or using the assay, referenced by Eurofins, and described in Behrendt et al. “Characterization of the mouse cold-menthol receptor TRPM8 and vanilloid receptor type-1 VR1 using a fluorometric imaging plate reader (FLIPR) assay,” Br J Pharmacol. 2004 Feb;141(4):737-45, which are each incorporated herein by reference. […] 4.
The assay is done at room temperature and measures calcium flux.
Background: Calcium flux is commonly read through the fluorescence of an indicator in the cells.

The mark [1] stands for this setting: control activator ligand icilin.

T1 sequence (Q7Z2W7 whole entry): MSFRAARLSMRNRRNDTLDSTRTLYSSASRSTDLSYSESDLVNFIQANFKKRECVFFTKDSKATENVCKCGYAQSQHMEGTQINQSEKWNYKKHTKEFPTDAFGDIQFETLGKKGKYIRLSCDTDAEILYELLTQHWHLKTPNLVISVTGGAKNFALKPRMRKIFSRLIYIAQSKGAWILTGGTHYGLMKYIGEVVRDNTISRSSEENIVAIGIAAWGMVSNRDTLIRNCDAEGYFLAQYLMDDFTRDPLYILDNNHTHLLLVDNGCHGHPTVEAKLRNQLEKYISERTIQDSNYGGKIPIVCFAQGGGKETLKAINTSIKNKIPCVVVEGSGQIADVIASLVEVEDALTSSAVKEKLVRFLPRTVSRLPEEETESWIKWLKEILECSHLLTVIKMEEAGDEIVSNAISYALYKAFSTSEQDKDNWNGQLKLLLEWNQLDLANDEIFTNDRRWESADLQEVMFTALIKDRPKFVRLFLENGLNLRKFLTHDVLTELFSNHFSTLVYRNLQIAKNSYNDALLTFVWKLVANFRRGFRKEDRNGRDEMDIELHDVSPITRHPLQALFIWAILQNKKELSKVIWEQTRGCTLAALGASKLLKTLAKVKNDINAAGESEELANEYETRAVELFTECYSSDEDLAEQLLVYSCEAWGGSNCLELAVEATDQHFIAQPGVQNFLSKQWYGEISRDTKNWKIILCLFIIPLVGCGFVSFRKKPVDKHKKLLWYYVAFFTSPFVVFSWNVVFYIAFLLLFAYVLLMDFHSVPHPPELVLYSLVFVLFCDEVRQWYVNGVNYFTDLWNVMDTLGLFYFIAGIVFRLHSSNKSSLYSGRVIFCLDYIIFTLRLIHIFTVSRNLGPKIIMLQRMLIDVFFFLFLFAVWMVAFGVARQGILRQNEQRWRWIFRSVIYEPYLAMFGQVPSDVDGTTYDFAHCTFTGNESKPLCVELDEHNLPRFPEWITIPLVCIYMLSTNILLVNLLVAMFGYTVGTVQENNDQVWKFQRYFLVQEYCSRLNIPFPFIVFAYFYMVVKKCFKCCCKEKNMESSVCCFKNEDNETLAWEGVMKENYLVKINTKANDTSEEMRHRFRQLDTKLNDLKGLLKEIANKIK

For the compound `CC(C)[C@@H]1CC[C@@H](C)C[C@H]1C(=O)NC12CC(C(=O)OC(C)(C)C)(C1)C2` [Compound 51], the EC50 is below 100 nM. For the same compound, the Emax under setting [1] was above 75%.
For `CC(C)[C@@H]1CC[C@@H](C)C[C@H]1C(=O)NC1CCS(=O)(=O)CC1` [Compound 36] the same measures were below 10000 nM and above 75%.
`CC(C)[C@@H]1CC[C@@H](C)C[C@H]1C(=O)NC1CN(CCO)C1` [Compound 28]: the EC50 is below 10000 nM. In addition, the Emax under setting [1] was above 75%.
Turning to `COC(=O)C12CC(NC(=O)c3cc(C)ccc3C(C)C)(C1)C2` [Compound 170], the EC50 was below 5000 nM. In addition, the Emax under setting [1] was above 75%.
As for `CC(C)[C@@H]1CC[C@@H](C)C[C@H]1C(=O)N[C@H]1CCC(F)(F)C1` [Compound 94], the EC50 is below 500 nM. Moreover, the Emax under setting [1] is above 75%.
In the case of `COC1CC(NC(=O)[C@@H]2C[C@H](C)CC[C@H]2C(C)C)C1` (some centres unmarked) [Compound 48], the EC50 was below 500 nM. Besides, the Emax under setting [1] was above 50%.
On to `CC(C)[C@@H]1CC[C@@H](C)C[C@H]1C(=O)NCC#N` [Compound 97], for which the EC50 is above 10000 nM.
For `COCCOCCOc1cccc(NC(=O)[C@@H]2C[C@H](C)CC[C@H]2C(C)C)c1` [Compound 9], the EC50 is below 5000 nM. Also, the Emax under setting [1] was above 75%.
In the case of `CC(C)[C@@H]1CC[C@@H](C)C[C@H]1C(=O)Nc1ccc(N2CCOCC2)nc1` [Compound 73], the EC50 was below 100 nM. In addition, the Emax under setting [1] was above 50%.
For `CC(C)[C@@H]1CC[C@@H](C)C[C@H]1C(=O)NC12CC(NC(=O)CO)(C1)C2` [Compound 47] the same measures were below 500 nM and above 100%.
On to `COC(=O)Cn1cc(NC(=O)[C@@H]2C[C@H](C)CC[C@H]2C(C)C)cn1` [Compound 68], for which the EC50 was below 7500 nM. In addition, the Emax under setting [1] was above 75%.
As for `COCCO[C@H]1CC[C@H](NC(=O)[C@@H]2C[C@H](C)CC[C@H]2C(C)C)CC1` [Compound 52], the EC50 is below 1000 nM. Besides, the Emax under setting [1] is above 100%.
For `CC(C)[C@@H]1CC[C@@H](C)C[C@H]1C(=O)Nc1ccc(B2OC(C)(C)C(C)(C)O2)cc1` [Compound 22], the half-maximal effective concentration (EC50) was below 500 nM. Besides, the Emax under setting [1] was above 100%.
Regarding `CC(C)[C@@H]1CC[C@@H](C)C[C@H]1C(=O)N[C@@H]1CCC(F)(F)C1` [Compound 98], the EC50 is below 500 nM. Moreover, under setting [1], the Emax was above 75%.
For `CC(C)[C@@H]1CC[C@@H](C)C[C@H]1C(=O)NCC1CC1(F)F` (some centres unmarked) [Compound 89], the EC50 is below 1000 nM. Moreover, under setting [1], the Emax is above 75%.
For `CCOc1ccc(NC(=O)[C@@H]2C[C@H](C)CC[C@H]2C(C)C)cn1` [Compound 76] the same measures were below 100 nM and above 50%.
As to `CC(C)[C@@H]1CC[C@@H](C)C[C@H]1C(=O)Nc1ccccc1CCN` [Compound 67], the EC50 is below 100 nM. The Emax under setting [1] is above 75%.
Consider `CC(C)[C@@H]1CC[C@@H](C)C[C@H]1C(=O)Nc1ccc(N2CCOCC2)cc1` [Compound 18], for which the EC50 was below 100 nM. In addition, the Emax under setting [1] was above 50%.
With `CC(C)[C@@H]1CC[C@@H](C)C[C@H]1C(=O)NC12CCC(CO)(CC1)C2` [Compound 46], the EC50 was below 500 nM. Besides, the Emax under setting [1] is above 100%.
As for `C=C(C)[C@@H]1CC[C@@H](C)C[C@H]1C(=O)Nc1ccc(OC)cc1` [Compound 107], the EC50 is below 500 nM. Further, the Emax under setting [1] is above 100%.
On to `COC12CCC(NC(=O)[C@H]3CCC[C@@H](N)C3)(CC1)CC2` [Compound 171], for which the EC50 is above 10000 nM.
`COc1ccc(NC(=O)[C@@H]2C[C@H](C)CC[C@H]2C(C)C)c(F)n1` [Compound 81]: the EC50 is below 100 nM. In addition, the Emax under setting [1] is above 100%.
In the case of `CC(C)[C@@H]1CC[C@@H](C)C[C@H]1C(=O)NN1CCOCC1` [Compound 100], under setting [1], the Emax is above 35%.
Consider `COC(=O)c1ccc(NC(=O)[C@@H]2C[C@H](C)CC[C@H]2C(C)C)cn1` [Compound 78], for which the EC50 is below 500 nM. The Emax under setting [1] is above 75%.
Consider `CC(C)[C@@H]1CC[C@@H](C)C[C@H]1C(=O)NC1CCN(C)CC1` [Compound 54], for which the EC50 was above 10000 nM. Moreover, the Emax under setting [1] was above 75%.
In the case of `CC(C)[C@@H]1CC[C@@H](C)C[C@H]1C(=O)NC1CC2C(C1)C2(F)F` (some centres unmarked) [92 or 102], the EC50 is below 100 nM. In addition, the “Percent Agonist” value under setting [1] is above 50%.
With `COc1ccc(NC(=O)[C@@H]2C[C@H](C)CC[C@H]2C(C)C)cn1` [Compound 74], the EC50 was below 100 nM. Moreover, the Emax under setting [1] is above 50%.
For `CC(C)[C@@H]1CC[C@@H](C)C[C@H]1C(=O)Nc1ccc(OCCN2CCCC2)cc1` [Compound 19], the EC50 is below 500 nM. Further, the Emax under setting [1] is above 75%.
Turning to `COCCOc1ccc(NC(=O)[C@@H]2C[C@H](C)CC[C@H]2C(C)C)cc1` [Compound 3], the EC50 is below 500 nM. The Emax under setting [1] was above 75%.
For `CC(C)[C@@H]1CC[C@@H](C)C[C@H]1C(=O)Nc1ccc(C2(O)COC2)cc1` [Compound 21] the same measures were below 100 nM and above 75%.
`CC(C)[C@@H]1CC[C@@H](C)C[C@H]1C(=O)Nc1ccc(Cl)cn1` [Compound 86]: the EC50 is below 5000 nM. Besides, the Emax under setting [1] was above 100%.
As to `COC(=O)c1cc(NC(=O)[C@@H]2C[C@H](C)CC[C@H]2C(C)C)ccn1` [Compound 72], the EC50 was below 5000 nM. Further, the Emax under setting [1] is above 75%.
Regarding `COC(=O)CC12CC(NC(=O)[C@@H]3C[C@H](C)CC[C@H]3C(C)C)(C1)C2` [Compound 43], the EC50 was below 1000 nM. In addition, under setting [1], the Emax was above 75%.
On to `COc1ccc(NC(=O)[C@@H]2C[C@H](C)CC[C@H]2C(C)=O)cc1` [Compound 108], for which the EC50 is above 10000 nM. Moreover, the Emax under setting [1] was above 5%.
In the case of `CC(C)[C@@H]1CC[C@@H](C)C[C@H]1C(=O)NCCC1CC1(F)F` (some centres unmarked) [Compound 91], the EC50 is below 1000 nM. For the same compound, under setting [1], the Emax was above 75%.
For `COc1ncc(NC(=O)[C@@H]2C[C@H](C)CC[C@H]2C(C)C)cc1C` [Compound 88], the EC50 is below 5000 nM. Further, under setting [1], the Emax was above 35%.
As to `COC(=O)NC12CC(NC(=O)[C@@H]3C[C@H](C)CC[C@H]3C(C)C)(C1)C2` [Compound 37], the EC50 is below 1000 nM. For the same compound, the Emax under setting [1] is above 100%.
Take `CC(C)[C@@H]1CC[C@@H](C)C[C@H]1C(=O)NC12CC(C#N)(C1)C2` [Compound 27]: the half-maximal effective concentration (EC50) is below 5000 nM. In addition, under setting [1], the Emax is above 75%.
Turning to `CC(C)[C@@H]1CC[C@@H](C)C[C@H]1C(=O)Nc1ccc(S(C)(=O)=O)nc1` [Compound 84], the EC50 is below 100 nM. The Emax under setting [1] was above 75%.
`CC(C)[C@@H]1CC[C@@H](C)C[C@H]1C(=O)NCCC#N` [Compound 99]: the EC50 was below 10000 nM. Further, the Emax under setting [1] is above 75%.
As to `COC12CCC(NC(=O)[C@@H]3C[C@H](C)CC[C@H]3C(C)C)(CC1)CC2` [Compound 55], the EC50 is below 100 nM. For the same compound, the Emax under setting [1] is above 75%.
Regarding `CO[C@H]1CC[C@H](NC(=O)[C@@H]2C[C@H](C)CC[C@H]2C(C)C)CC1` [Compound 50], the EC50 is below 500 nM. Further, the Emax under setting [1] is above 100%.
Regarding `CC(C)[C@@H]1CC[C@@H](C)C[C@H]1C(=O)NC12CCC(C(F)(F)F)(CC1)C2` [Compound 59], the EC50 is below 1000 nM. Moreover, the Emax under setting [1] was above 75%.

The EC50 is the concentration needed to bring the measured effect to its halfway point.
